Patent publication US20090042726A1, “Novel Herbicides” (SYNGENTA LIMITED, priority 2005, published 2009)

Test system: Monocotyledonous and dicotyledonous test plants
Test: Herbicidal action, application pre-emergence (Example B1)
Format: in vivo
Design: key: 10=total damage to plant; 0=no damage to plant
Conditions: 1000 g/ha, evaluated after 9 or 13 days; for AGSTE herbicidal action (damage score 0-10): Agrostis-tenius; for AMARE herbicidal action (damage score 0-10): Amaranthus retroflexus; for DIGSA herbicidal action (damage score 0-10): Digitaria sanguinalis; for POATR herbicidal action (damage score 0-10): Poa trivialis; for SETIT herbicidal action (damage score 0-10): Setaria italica
Experimental: Monocotyledonous and dicotyledonous test plants were sown in sterilised standard soil in seed trays each having 96 cells. After one day (pre-emergence) under controlled conditions in a climatic chamber (cultivation at 23/17° C., day/night; 13 hours light; 50-60% humidity; after application at 24/19° C., day/night), the plants were treated with an aqueous spray solution of 1000 mg/l of the active ingredient used (including 10% DMSO as solvent). The plants were grown on in the climatic chamber until the test was evaluated (10=total damage to plant, 0=no damage to plant) after 9 or 13 days.

SMILES	AGSTE herbicidal action (damage score 0-10)	AMARE herbicidal action (damage score 0-10)	DIGSA herbicidal action (damage score 0-10)	POATR herbicidal action (damage score 0-10)	SETIT herbicidal action (damage score 0-10)
Cn1nc(C(F)(F)F)c(CS(=O)(=O)C2=NOC(C)(C)C2Cl)c1OC(F)F (stereo not drawn) [2.18]	10	8	5	9	8
Cn1nc(C(F)(F)F)c(CSC2=NOC(C)(C)C2F)c1OC(F)F (stereo not drawn) [Compound No. 2.22]	10	9	9	9	9
C#CCn1cc(C[S+]([O-])C2=NOC(C)(C)C2F)c(C(F)(F)F)n1 (mixture of isomers) [2.49]	10	10	10	10	–
CCn1ncc(CS(=O)(=O)C2=NOC(C)(C)C2F)n1 (stereo not drawn) [7.36]	9	8	9	10	–
COCCOc1c(C[S+]([O-])C2=NOC(C)(C)C2F)c(C(F)(F)F)nn1C (mixture of isomers) [2.58]	10	10	10	10	–
CCn1cc(C[S+]([O-])C2=NOC(C)(C)C2F)c(C(F)(F)F)n1 (mixture of isomers) [2.46]	10	10	9	10	–
Cn1nc(OCC(F)(F)F)c(C[S+]([O-])C2=NOC(C)(C)C2F)c1C(F)(F)F (single isomer, unassigned) [2.42]	0	8	8	8	8
CC1(C)ON=C(S(=O)(=O)C(Cl)c2ccccc2OC(F)(F)F)C1F (stereo not drawn) [Compound No. 1.13, 3-[chloro-(2-trifluoromethoxy-phenyl)-methanesulfonyl]-4-fluoro-5,5-dimethyl-4,5-dihydro-isoxazole]	10	9	9	10	9
Cn1ncc(CS(=O)(=O)C2=NOC(C)(C)C2F)n1 (stereo not drawn) [7.23]	10	5	9	9	–
Cn1nc(C(F)(F)F)c(C[S+]([O-])C2=NOC(C)(C)C2Br)c1OC(F)F (stereo not drawn) [Compound No. 2.05, 4-bromo-3-(5-difluoromethoxy-1-methyl-3-trifluoromethyl-1H-pyrazol-4-ylmethylsulfinyl)-5,5-dimethyl-4,5-dihydro-isoxazole]	9	2	8	0	9
COc1cc(CS(=O)(=O)C2=NOC(C)(C)C2F)n(C)n1 (stereo not drawn) [6.13]	10	10	9	10	–
COCCOc1c(CS(=O)(=O)C2=NOC(C)(C)C2F)c(C(F)(F)F)nn1C (stereo not drawn) [2.59]	10	10	10	10	–
Cn1nc(C(F)(F)F)c(C[S+]([O-])C2=NOC(C)(C)C2F)c1OCC(F)(F)F (single isomer, unassigned) [2.09]	10	9	9	10	10
CC(c1nn(C)cc1C(F)(F)F)S(=O)(=O)C1=NOC(C)(C)C1F (stereo not drawn) [4.04, 3-(1-(4-fluoro-5,5-dimethyl-4,5-dihydro-isoxazol-3-ylsulfonyl)-eth-1 yl)-1-methyl-4-trifluoromethyl-1H-pyrazole]	10	9	9	8	9
CC1(C)ON=C(SCc2nn(CC3CCC3)nc2C(F)(F)F)C1F (stereo not drawn) [Compound No. 7.15]	8	9	9	0	–
Cn1cc(CS(=O)(=O)C2=NOC(C)(C)C2F)c(C(F)(F)F)n1 (stereo not drawn) [2.34]	10	10	10	10	9

SMILES	AGSTE herbicidal action (damage score 0-10)	AMARE herbicidal action (damage score 0-10)	DIGSA herbicidal action (damage score 0-10)	POATR herbicidal action (damage score 0-10)	SETIT herbicidal action (damage score 0-10)
CC1(C)ON=C(S(=O)(=O)C(F)(F)c2ccccc2OC(F)(F)F)C1F (stereo not drawn) [Compound No. 1.12]	10	9	9	0	8
Cc1nn(C)c(OCC(F)(F)F)c1C[S+]([O-])C1=NOC(C)(C)C1F (single isomer, unassigned) [2.61]	10	6	9	4	–
Cn1cc(C(F)(F)F)c(C[S+]([O-])C2=NOC(C)(C)C2F)n1 (mixture of isomers) [4.02]	10	9	9	10	9
Cn1nnc(Br)c1CS(=O)(=O)C1=NOC(C)(C)C1F (stereo not drawn) [11.03]	10	3	9	10	–
CC(C)n1nc(CS(=O)(=O)C2=NOC(C)(C)C2F)c(C(F)(F)F)n1 (stereo not drawn) [7.27]	9	1	10	0	–
CCn1cc(CS(=O)(=O)C2=NOC(C)(C)C2F)c(C(F)(F)F)n1 (stereo not drawn) [2.47]	10	10	9	10	–
Cn1cc(C(F)(F)F)c(CSC2=NOC(C)(C)C2F)n1 (stereo not drawn) [4.01, 3-(4-fluoro-5,5-dimethyl-4,5-dihydro-isoxazol-3-ylsulfanyl-methyl)-1-methyl-4-trifluoromethyl-1H-pyrazole]	0	8	9	0	9
Cn1nc(C(F)(F)F)c(C[S+]([O-])C2=NOC(C)(C)C2F)c1OC(F)F (mixture of isomers) [2.23]	10	10	10	10	10
Cn1nc(C(F)(F)F)c(C[S+]([O-])C2=NOC(C)(C)C2Cl)c1OC(F)F (mixture of isomers) [2.17]	10	6	10	10	9
CC1(C)ON=C(SCc2cccnc2Cl)C1F (stereo not drawn) [Compound No. 3.04]	8	2	8	7	–
Cc1nn(C)nc1C[S+]([O-])C1=NOC(C)(C)C1F (single isomer, unassigned) [7.02]	10	0	9	10	9
CC1(C)ON=C(S(=O)(=O)Cc2nn(C3CCCC3)nc2C(F)(F)F)C1F (stereo not drawn) [7.14]	10	8	9	8	–
COc1ncc(C[S+]([O-])C2=NOC(C)(C)C2F)c(C(F)(F)F)n1 (stereo not drawn) [5.02]	10	10	10	10	–
CC(C)n1nc(C[S+]([O-])C2=NOC(C)(C)C2F)c(C(F)(F)F)n1 (single isomer, unassigned) [7.26]	9	0	5	6	–
Cn1nnc(Br)c1C[S+]([O-])C1=NOC(C)(C)C1F (mixture of isomers) [11.02]	10	5	9	10	–
